Measurements from patent US4970077A, “6-substituted-4-hydroxytetrahydropyran-2-one derivatives and pharmaceutical compositions containing them” (Boehringer Mannheim GmbH, priority 1988, dated 1990).

Assays:
HMG-CoA reductase [1] = target: T1, HMG-CoA reductase (Rattus norvegicus, UniProt P51639); assay: Inhibition of HMG-CoA reductase in a microsome fraction from rat liver; type: biochemical; details: rat liver microsomes; for HMG-CoA-reductase Inhibition in %: concentration not given, method: 10^-4 M or 10^-5 M
T1 construct: microsomes from rat livers; from tissue; host or cells: liver of cholestyramine-treated rats (reversed day/night rhythm), microsome fraction
T1 sequence (P51639 1-887): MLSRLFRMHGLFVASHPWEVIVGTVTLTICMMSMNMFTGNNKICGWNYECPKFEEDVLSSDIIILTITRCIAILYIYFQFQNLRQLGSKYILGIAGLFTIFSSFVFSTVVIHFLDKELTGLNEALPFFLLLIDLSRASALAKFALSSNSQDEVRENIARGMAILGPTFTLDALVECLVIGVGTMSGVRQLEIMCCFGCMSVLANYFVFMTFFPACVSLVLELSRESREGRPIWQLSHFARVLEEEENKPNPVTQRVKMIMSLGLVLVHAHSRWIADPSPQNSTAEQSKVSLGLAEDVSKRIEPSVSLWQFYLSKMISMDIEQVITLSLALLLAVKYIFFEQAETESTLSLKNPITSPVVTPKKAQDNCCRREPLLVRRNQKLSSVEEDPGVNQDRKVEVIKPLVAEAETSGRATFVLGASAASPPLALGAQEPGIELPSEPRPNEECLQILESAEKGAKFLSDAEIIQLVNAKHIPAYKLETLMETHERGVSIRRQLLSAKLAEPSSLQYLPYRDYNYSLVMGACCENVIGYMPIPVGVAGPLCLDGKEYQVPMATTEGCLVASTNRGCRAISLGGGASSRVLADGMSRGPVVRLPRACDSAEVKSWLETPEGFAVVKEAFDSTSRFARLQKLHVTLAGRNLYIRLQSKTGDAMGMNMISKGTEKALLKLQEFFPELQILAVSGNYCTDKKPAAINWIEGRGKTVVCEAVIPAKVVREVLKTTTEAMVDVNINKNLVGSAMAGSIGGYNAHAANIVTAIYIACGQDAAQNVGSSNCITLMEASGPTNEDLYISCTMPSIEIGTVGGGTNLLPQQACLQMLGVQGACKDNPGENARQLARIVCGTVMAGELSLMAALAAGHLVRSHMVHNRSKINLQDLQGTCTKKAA
Text: Inhibition of HMG-CoA reductase in a microsome fraction from rat liver
For the determination of the HMG-CoA reductase activity, microsomes from rat livers, which had been treated for 7 days in the case of reversed day/night rhythm with cholestyramine, were separated by centrifuging. The action of the test compounds at a concentration of 10^-4 M or 10^-5 M on the formation of mevalonate from (S,R) ^14 C--HMG--CoA was investigated. The experimental conditions are described in detail by J. Huber. S. Latzien and B. Hamprecht, Hoppe-Seylers Z. Physiol. Chem., 354, 1654/1973.

HMG-CoA reductase [2] = details: literature: Endo 1976; Alberts 1980; cited from earlier work

Row | Structure (SMILES) | HMG-CoA-reductase Inhibition in % (HMG-CoA reductase [1]) [%] | competitive inhibition of HMG-CoA reductase (in words) (HMG-CoA reductase [2]) | further results
1 | O=C1C[C@H](O)C[C@@H](/C=C/c2c(Cl)cc(Cl)cc2C2CCCCCC2)O1 (relative stereo) [2 (a)] | 95 | – | –
2 | O=C1C[C@H](O)C[C@@H](/C=C/c2c(Cl)cc(Cl)cc2C2CCCCC2)O1 (relative stereo) [2 (c)] | 90 | – | –
3 | CC[C@H](C)C(=O)O[C@H]1C[C@@H](C)C=C2C=C[C@H](C)[C@H](CC[C@@H]3C[C@@H](O)CC(=O)O3)[C@H]21 [mevinolin] | – | competitively to inhibit HMG-CoA reductase | –
4 | CC[C@H](C)C(=O)O[C@H]1CCC=C2C=C[C@H](C)[C@H](CC[C@@H]3C[C@@H](O)CC(=O)O3)[C@H]21 [compactin A] | – | competitively to inhibit HMG-CoA reductase | –
5 | O=C1C[C@H](O)C[C@@H](/C=C/c2ccccc2C2=CCCCC2)O1 (relative stereo) [2 (i)] | – | – | inhibition at 100 µM (HMG-CoA reductase [1]; 10^-4 M): 63%
6 | O=C1C[C@H](O)C[C@@H](/C=C/c2c(Cl)cccc2C2CCCCCC2)O1 (relative stereo) [2 (b)] | 93 | – | –
